Measured values as given in patent publication US20120046317A1, “NOVEL HETEROCYCLIC COMPOUNDS” (priority 2009, published 2012).
Read-outs that look alike come from different tables or passages of the source.

Experiments:
patients = settings: phase 2 clinical studies; particularly in more severely affected patients; cited from earlier work
[1] = tested on: AGE-BSA Formation (Bovine Serum Albumin incubated with ribose); assay: In vitro prevention of advanced glycation endproducts (AGEs) accumulation: BSA incubated with ribose, fluorescence; settings: one week
Method: A reduction in fluorescence intensity in the presence of the test compound is an indication of its ability to prevent accumulation of advanced glycation endproducts.
Bovine Serum Albumin was incubated with ribose alone as well as with ribose and different concentrations of the following compounds under aseptic conditions for one week. At the end of the incubation period fluorescence intensity of the samples was measured at excitation and emission wavelengths of 355 nm and 460 nm respectively.

[2] = rat, in vivo, po, 10 mg/kg
Method: (§1) Summary of Oral Pharmacokinetics of Reference Compound-T and Compound No. 100 in Wistar Rat:
(§2) Single dose pharmacokinetics of Reference compound-T (3-((2-(methylsulfonyl)hydrazino)carbonyl)-1-(2-oxo-2-thienylethyl)pyridinium chloride) and compound no. 100 was studied in male Wistar rat (280-300 gm, n=5) after oral administration at a dose of 10 mg/kg. Blood samples were obtained serially from jugular vein cannulated animals at selected time points and concentration of Reference compound-T and compound no. 100 in plasma was determined by LC-MS/MS. Non-compartmental pharmacokinetic analysis was performed using WinNonlin 5.2. […] 100.

[3] = male, dog, in vivo, po, 15 mg/kg
Method: (§3) Non-compartmental pharmacokinetic analysis was performed using WinNonlin 5.2.

in vivo [4] = settings: male, dog, po, 15 mg/kg
Method: as §3

in vivo [5] = settings: male, Wistar, rat, po, 10 mg/kg
Method: as §1, §2

[6] = tested on: AGE-LDL formation (Low density lipoprotein incubated with CuCl2); assay: In vitro inhibition of AGE-LDL formation: LDL incubated with CuCl2, MDA-lysine adduct fluorescence; type: biochemical; settings: LDL with CuCl2 at 37° C.
Method: In vitro Inhibition of AGE-LDL Formation:
Low density lipoprotein (LDL) was incubated with CuCl2 at 37° C. in phosphate buffered saline in the presence and absence of the following compounds. […] Results were expressed as % MDA-lysine adducts accumulation, considering the extent of the same formed upon incubation with CuCl2 alone as 100%.

[7] = Single dose oral pharmacokinetics of Reference compound-T and compound no. 100 in dog; settings: male dog, 15 mg/kg, administered compound in plasma, mean
Method: as §3

[8] = Single dose oral pharmacokinetics of Reference compound-T and compound no. 100 in Wistar rat; settings: male Wistar rat, 10 mg/kg
Method: as §1, §2

[9] = tested on: diabetic spontaneously hypertensive rats; settings: cited from earlier work
Ob-ZSF1 animal model = settings: cited from earlier work
[10] = administered compound in plasma, mean

For `Cc1sc[n+](CC(=O)c2ccccc2)c1C` [Alagebrium], the “Effect on cardiac function and systolic blood pressure” value (patients) is given as “effective in improving cardiac function and uncontrolled systolic blood pressure”.

With `CS(=O)(=O)NNC(=O)C1=CN(CC(=O)c2cccs2)C=CC1` [Compound no. 100, N′-(methylsulfonyl)-1-[2-oxo-2-(thiophen-2-yl)ethyl]-1,4-dihydropyridine-3-carbohydrazide] the “% Inhibition of AGE-BSA Formation” value ([1]; Conc. 1 mM) was “++ (++ indicate 11-20%)”, the Absorption [2] was “absorbed rapidly” and the “Maximum plasma concentration of reference compound converted after administration of compound no. 100 in comparison to the administration of ref. compound” value [3] was about 3.6 times. For the same compound, the AUC(0-t) (in vivo [4]) was 1780 ng·h/mL, the Cmax (in vivo [4]) was 397 ng/mL and the AUC(0-t) (in vivo [5]) was 1410 ng·h/mL. The Cmax (in vivo [5]) was 1350 ng/mL and the “% Inhibition of AGE-LDL-formation” value ([6]; Conc. 250 uM) was “++++ (++++ indicate >30%)”.

In the case of `CS(=O)(=O)NNC(=O)c1ccc[n+](CC(=O)c2cccs2)c1.[Cl-]` [Reference compound-T, 3-((2-(methylsulfonyl)hydrazino)carbonyl)-1-(2-oxo-2-thienylethyl)pyridinium chloride], the “AUC(0-24 hr)” value [7] is reported as 2477.0 ng·h/mL, the Cmax [7] is reported as 258.4 ng/mL and the Absorption [8] is reported as “absorbed rapidly”. The “AUC(0-8 hr)” value [8, 10] was 203.6 ng·h/mL and the Cmax [8, 10] was 100.5 ng/mL.

In the case of `CS(=O)(=O)NNC(=O)c1ccc[n+](CC(=O)c2cccs2)c1.[Br-]` [TRC4149], the “Effect on endothelial and cardiac function” value [9] is listed as “preserved endothelial and cardiac function”.

For `CS(=O)(=O)NNC(=O)c1ccc[n+](CC(=O)c2cccs2)c1.[Cl-]` [TRC4186], the “Effect on diabetic cardiomyopathy and nephropathy” value (Ob-ZSF1 animal model) is given as “preserved cardiac function and reduced the severity of renal dysfunction”.

With `COc1ccc(C(=O)CN2CCC=C(C(=O)NNS(=O)(=O)c3ccc(C)cc3)C2)cc1` [compound 173, 1-[2-(4-methoxyphenyl)-2-oxoethyl]-N′-[(4-methylphenyl)sulfonyl]-1,2,5,6-tetrahydropyridine-3-carbohydrazide] the “% Inhibition of AGE-BSA Formation” value ([1]; Conc. 100 uM) was “+ (+ indicate 0-10%)” and the “% Inhibition of AGE-LDL-formation” value ([6]; Conc. 100 uM) was “+ (+ indicate 0-10%)”.

In the case of `Cc1ccc(C(=O)CN2CCC=C(C(=O)NNS(C)(=O)=O)C2)s1` [compound 174, N′-(methylsulfonyl)-1-[2-(5-methylthiophen-2-yl)-2-oxoethyl]-1,2,5,6-tetrahydropyridine-3-carbohydrazide], the “% Inhibition of AGE-BSA Formation” value ([1]; Conc. 1 mM) is reported as “+ (+ indicate 0-10%)” and the “% Inhibition of AGE-LDL-formation” value ([6]; Conc. 250 uM) is reported as “++++ (++++ indicate >30%)”.

In the case of `COc1ccc(C(=O)CN2CC=CC(C(=O)NNS(C)(=O)=O)C2)cc1` (centres unmarked) [compound 181, 1-[2-(4-methoxyphenyl)-2-oxoethyl]-N′-(methylsulfonyl)-1,2,3,6-tetrahydropyridine-3-carbohydrazide], the “% Inhibition of AGE-BSA Formation” value ([1]; Conc. 250 uM) is reported as “+ (+ indicate 0-10%)” and the “% Inhibition of AGE-LDL-formation” value ([6]; Conc. 100 uM) is reported as “+ (+ indicate 0-10%)”.

With `Cc1ccc(C(=O)CN2CC=CC(C(=O)NNS(C)(=O)=O)C2)s1` (centres unmarked) [compound 182, N′-(methylsulfonyl)-1-[2-(5-methylthiophen-2-yl)-2-oxoethyl]-1,2,3,6-tetrahydropyridine-3-carbohydrazide] the “% Inhibition of AGE-BSA Formation” value ([1]; Conc. 1 mM) was “+ (+ indicate 0-10%)” and the “% Inhibition of AGE-LDL-formation” value ([6]; Conc. 250 uM) was “+++ (+++ indicate 21-30%)”.

With `CS(=O)(=O)NNC(=O)C1=CN(CC(=O)c2cccs2)CCC1` [compound 183, N′-(methylsulfonyl)-1-[2-oxo-2-(thiophen-2-yl)ethyl]-1,4,5,6-tetrahydropyridine-3-carbohydrazide] the “% Inhibition of AGE-BSA Formation” value ([1]; Conc. 1 mM) was “+++ (+++ indicate 21-30%)” and the “% Inhibition of AGE-LDL-formation” value ([6]; Conc. 250 uM) was “++ (++ indicate 11-20%)”.

For `CS(=O)(=O)NNC(=O)C1CCCN(CC(=O)c2cccs2)C1` (centres unmarked) [compound 184, N′-(methylsulfonyl)-1-[2-oxo-2-(thiophen-2-yl)ethyl]piperidine-3-carbohydrazide], the “% Inhibition of AGE-BSA Formation” value ([1]; Conc. 1 mM) was “+ (+ indicate 0-10%)” and the “% Inhibition of AGE-LDL-formation” value ([6]; Conc. 250 uM) was “+++ (+++ indicate 21-30%)”.

In the case of `CS(=O)(=O)NNC(=O)C1=CCCN(CC(=O)c2cccs2)C1` [compound 185, N′-(methylsulfonyl)-1-[2-oxo-2-(thiophen-2-yl)ethyl]-1,2,5,6-tetrahydropyridine-3-carbohydrazide], the “% Inhibition of AGE-BSA Formation” value ([1]; Conc. 1 mM) is reported as “+ (+ indicate 0-10%)” and the “% Inhibition of AGE-LDL-formation” value ([6]; Conc. 250 uM) is reported as “+++ (+++ indicate 21-30%)”.

For `CS(=O)(=O)NNC(=O)C1C=CCN(CC(=O)c2cccs2)C1` (centres unmarked) [compound 186, N′-(methylsulfonyl)-1-[2-oxo-2-(thiophen-2-yl)ethyl]-1,2,3,6-tetrahydropyridine-3-carbohydrazide], the “% Inhibition of AGE-BSA Formation” value ([1]; Conc. 1 mM) was “+ (+ indicate 0-10%)” and the “% Inhibition of AGE-LDL-formation” value ([6]; Conc. 250 uM) was “++++ (++++ indicate >30%)”.
